Data published in patent US11446287B2, “Compounds and methods for EP300 or CBP modulation and indications therefor” (Opna Immuno-Oncology SA, priority 2019, dated 2022).
pIC50: −log10 of the molar value.

Target: T1, Recombinant human CBP containing the bromodomain (CBP-BD (1043-1159)) (Homo sapiens, UniProt Q92793)
T1 construct: Recombinant human CBP bromodomain (CBP-BD (1043-1159)); made in house; host or cells: E. coli BL21-CodonPlus (DE3), modified pET vector
Experiment: CBP Alphascreen binding assay
Settings: read-out: CREBBP (CBP) IC50
Summary of the method: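 Buffer: 50 mM HEPES pH 7.5, 50 mM NaCl, 0.01% BSA, 0.01% Triton X-100, 2 mM DTT. The signal was normalised to plate controls and fitted with a four-parameter curve to give IC50.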

T1 sequence (Q92793 1081-1197): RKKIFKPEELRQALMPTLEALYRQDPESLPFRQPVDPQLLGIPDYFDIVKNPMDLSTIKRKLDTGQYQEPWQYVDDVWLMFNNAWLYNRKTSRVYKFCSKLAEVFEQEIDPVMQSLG

Row | Compound | pIC50
1 | Cc1noc(C)c1-c1cnc2c(c1)c(-c1ccc(C(=O)O)cc1)cn2C(C)c1ncccn1 (stereo not shown) [P-0013, 4-(5-(3,5-dimethylisoxazol-4-yl)-1-(1-(pyrimidin-2-yl)ethyl)-1H-pyrrolo[2,3-b]pyridin-3-yl)benzoic acid] | 6.00 to 10.00
2 | Cc1noc(C)c1-c1cnc2c(c1)c(-c1ccc(C(=O)O)cc1)cn2C(C)c1ccc(F)cn1 (stereo not shown) [P-0014, 4-(5-(3,5-dimethylisoxazol-4-yl)-1-(1-(5-fluoropyridin-2-yl)ethyl)-1H-pyrrolo[2,3-b]pyridin-3-yl)benzoic acid] | 6.00 to 10.00
3 | Cc1noc(C)c1-c1cnc2c(c1)c(-c1cccc(C(=O)O)c1)cn2C(c1ccccn1)C1CCCC1 (stereo not shown) [P-0015, 3-(1-(cyclopentyl(pyridin-2-yl)methyl)-5-(3,5-dimethylisoxazol-4-yl)-1H-pyrrolo[2,3-b]pyridin-3-yl)benzoic acid] | 6.00 to 10.00
4 | Cc1noc(C)c1-c1cnc2c(c1)c(-c1ccc(F)c(C(=O)O)c1)cn2C(c1ccccn1)C1CCCC1 (stereo not shown) [P-0016, 5-(1-(cyclopentyl(pyridin-2-yl)methyl)-5-(3,5-dimethylisoxazol-4-yl)-1H-pyrrolo[2,3-b]pyridin-3-yl)-2-fluorobenzoic acid] | 6.00 to 10.00
5 | Cc1noc(C)c1-c1cnc2c(c1)c(-c1ccnc(C(=O)O)c1)cn2C(c1ccccn1)C1CCCC1 (stereo not shown) [P-0017, 4-(1-(cyclopentyl(pyridin-2-yl)methyl)-5-(3,5-dimethylisoxazol-4-yl)-1H-pyrrolo[2,3-b]pyridin-3-yl)picolinic acid] | 6.00 to 10.00
6 | Cc1noc(C)c1-c1cnc2c(c1)c(-c1cccc(CC(=O)O)c1)cn2C(c1ccccn1)C1CCCC1 (stereo not shown) [P-0018, 2-(3-(1-(cyclopentyl(pyridin-2-yl)methyl)-5-(3,5-dimethylisoxazol-4-yl)-1H-pyrrolo[2,3-b]pyridin-3-yl)phenyl)acetic acid] | 6.00 to 10.00
7 | Cc1noc(C)c1-c1cnc2c(c1)c(-c1ccncc1)cn2C(c1ccccn1)C1CCCC1 (stereo not shown) [P-0019, 4-(1-(cyclopentyl(pyridin-2-yl)methyl)-3-(pyridin-4-yl)-1H-pyrrolo[2,3-b]pyridin-5-yl)-3,5-dimethylisoxazole] | 5.10 to 6.00
8 | Cc1noc(C)c1-c1cnc2c(c1)c(-c1ccc(C(=O)O)cc1OC1CC1)cn2[C@@H](C)c1ccccn1 [P-0170, (S)-3-cyclopropoxy-4-(5-(3,5-dimethylisoxazol-4-yl)-1-(1-(pyridin-2-yl)ethyl)-1H-pyrrolo[2,3-b]pyridin-3-yl)benzoic acid] | 6.00 to 10.00
9 | Cc1noc(C)c1-c1cnc2c(-c3ccc(C(=O)O)cc3C#CC3CC3)cn([C@@H](C)c3ccccn3)c2c1 [P-0171, (S)-3-(cyclopropylethynyl)-4-(6-(3,5-dimethylisoxazol-4-yl)-1-(1-(pyridin-2-yl)ethyl)-1H-pyrrolo[3,2-b]pyridin-3-yl)benzoic acid] | 6.00 to 10.00
10 | COc1ccc(C(=O)O)cc1-c1cn(C(C)(c2ccccn2)c2ccccn2)c2cc(-c3c(C)noc3C)cnc12 [P-0172, 3-(1-(1,1-di(pyridin-2-yl)ethyl)-6-(3,5-dimethylisoxazol-4-yl)-1H-pyrrolo[3,2-b]pyridin-3-yl)-4-methoxybenzoic acid] | 5.10 to 6.00
11 | CCOc1cc(C(=O)O)cc(OCC)c1-n1cc(-c2cccnc2)c2ncc(-c3c(C)noc3C)cc21 [P-0173, 4-(6-(3,5-dimethylisoxazol-4-yl)-3-(pyridin-3-yl)-1H-pyrrolo[3,2-b]pyridin-1-yl)-3,5-diethoxybenzoic acid] | 6.00 to 10.00
12 | CCOc1cc(C(=O)O)cc(OC(C)C)c1-c1cn([C@@H](C)c2ccccn2)c2ncc(-c3c(C)noc3C)cc12 [P-0174, (S)-4-(5-(3,5-dimethylisoxazol-4-yl)-1-(1-(pyridin-2-yl)ethyl)-1H-pyrrolo[2,3-b]pyridin-3-yl)-3-ethoxy-5-isopropoxybenzoic acid] | 6.00 to 10.00
13 | Cc1noc(C)c1-c1cnc2c(c1)c(-c1ccc(C(=O)O)cc1OC(F)(F)F)cn2-c1cccnc1 [P-0175, 4-(5-(3,5-dimethylisoxazol-4-yl)-1-(pyridin-3-yl)-1H-pyrrolo[2,3-b]pyridin-3-yl)-3-(trifluoromethoxy)benzoic acid] | 6.00 to 10.00
14 | COc1ccncc1-n1cc(-c2ccc(C(=O)O)cc2OC(F)(F)F)c2cc(-c3c(C)noc3C)cnc21 [P-0176, 4-(5-(3,5-dimethylisoxazol-4-yl)-1-(4-methoxypyridin-3-yl)-1H-pyrrolo[2,3-b]pyridin-3-yl)-3-(trifluoromethoxy)benzoic acid] | 6.00 to 10.00
15 | Cc1noc(C)c1-c1cnc2c(c1)c(-c1ccc(C(=O)O)cc1OC(F)(F)F)cn2-c1cnccc1Cl [P-0177, 4-(1-(4-chloropyridin-3-yl)-5-(3,5-dimethylisoxazol-4-yl)-1H-pyrrolo[2,3-b]pyridin-3-yl)-3-(trifluoromethoxy)benzoic acid] | 6.00 to 10.00
16 | Cc1noc(C)c1-c1cnc2c(c1)c(-c1ccc(C(=O)O)cc1C#CC1CC1)cn2[C@@H](C)c1ccccn1 [P-0178, (S)-3-(cyclopropylethynyl)-4-(5-(3,5-dimethylisoxazol-4-yl)-1-(1-(pyridin-2-yl)ethyl)-1H-pyrrolo[2,3-b]pyridin-3-yl)benzoic acid] | 5.10 to 6.00

Row | Compound | pIC50
17 | Cc1noc(C)c1-c1cnc2c(c1)c(-c1ccc(C(=O)O)cc1OC1CCC1)cn2[C@@H](C)c1ccccn1 [P-0179, (S)-3-cyclobutoxy-4-(5-(3,5-dimethylisoxazol-4-yl)-1-(1-(pyridin-2-yl)ethyl)-1H-pyrrolo[2,3-b]pyridin-3-yl)benzoic acid] | 6.00 to 10.00
18 | Cc1noc(C)c1-c1cnc2c(c1)c(-c1ccc(C(=O)O)cc1OC(F)(F)F)cn2-c1ncccc1C(F)(F)F [P-0180, 4-(5-(3,5-dimethylisoxazol-4-yl)-1-(3-(trifluoromethyl)pyridin-2-yl)-1H-pyrrolo[2,3-b]pyridin-3-yl)-3-(trifluoromethoxy)benzoic acid] | 6.00 to 10.00
19 | Cc1noc(C)c1-c1cnc2c(c1)c(-c1ccc(C(=O)O)cc1C1CC1)cn2[C@@H](C)c1ccccn1 [P-0181, (S)-3-cyclopropyl-4-(5-(3,5-dimethylisoxazol-4-yl)-1-(1-(pyridin-2-yl)ethyl)-1H-pyrrolo[2,3-b]pyridin-3-yl)benzoic acid] | 6.00 to 10.00
20 | Cc1noc(C)c1-c1cnc2c(c1)c(-c1ccc(C(=O)O)cc1OC(F)(F)F)cn2-c1ncccc1F [P-0182, 4-(5-(3,5-dimethylisoxazol-4-yl)-1-(3-fluoropyridin-2-yl)-1H-pyrrolo[2,3-b]pyridin-3-yl)-3-(trifluoromethoxy)benzoic acid] | 6.00 to 10.00
21 | Cc1noc(C)c1-c1cnc2c(c1)c(-c1ccc(C(=O)O)cc1OC(F)(F)F)cn2-c1ncccc1Cl [P-0183, 4-(1-(3-chloropyridin-2-yl)-5-(3,5-dimethylisoxazol-4-yl)-1H-pyrrolo[2,3-b]pyridin-3-yl)-3-(trifluoromethoxy)benzoic acid] | 6.00 to 10.00
22 | CCOc1cc(C(=O)O)cc(OCC)c1-n1cc(-c2ccc(F)cc2)c2ncc(-c3c(C)noc3C)cc21 [P-0184, 4-(6-(3,5-dimethylisoxazol-4-yl)-3-(4-fluorophenyl)-1H-pyrrolo[3,2-b]pyridin-1-yl)-3,5-diethoxybenzoic acid] | 6.00 to 10.00
23 | CCOc1cc(C(=O)O)cc(OCC)c1-n1cc(-c2cccc(Cl)c2)c2ncc(-c3c(C)noc3C)cc21 [P-0185, 4-(3-(3-chlorophenyl)-6-(3,5-dimethylisoxazol-4-yl)-1H-pyrrolo[3,2-b]pyridin-1-yl)-3,5-diethoxybenzoic acid] | 6.00 to 10.00
24 | CCOc1cc(C(=O)O)cc(OCC)c1-n1cc(-c2ccc(F)cc2F)c2ncc(-c3c(C)noc3C)cc21 [P-0186, 4-(3-(2,4-difluorophenyl)-6-(3,5-dimethylisoxazol-4-yl)-1H-pyrrolo[3,2-b]pyridin-1-yl)-3,5-diethoxybenzoic acid] | 6.00 to 10.00
25 | CCOc1cc(C(=O)O)cc(OCC)c1-n1cc(Cc2ccccn2)c2ncc(-c3c(C)noc3C)cc21 [P-0187, 4-(6-(3,5-dimethylisoxazol-4-yl)-3-(pyridin-2-ylmethyl)-1H-pyrrolo[3,2-b]pyridin-1-yl)-3,5-diethoxybenzoic acid] | 6.00 to 10.00
26 | Cc1noc(C)c1-c1cnc2c(c1)c(-c1ccc(C(=O)O)cc1OC(F)(F)F)cn2-c1ccccc1 [P-0188, 4-(5-(3,5-dimethylisoxazol-4-yl)-1-phenyl-1H-pyrrolo[2,3-b]pyridin-3-yl)-3-(trifluoromethoxy)benzoic acid] | 6.00 to 10.00
27 | Cc1ccncc1-n1cc(-c2ccc(C(=O)O)cc2OC(F)(F)F)c2cc(-c3c(C)noc3C)cnc21 [P-0189, 4-(5-(3,5-dimethylisoxazol-4-yl)-1-(4-methylpyridin-3-yl)-1H-pyrrolo[2,3-b]pyridin-3-yl)-3-(trifluoromethoxy)benzoic acid] | 6.00 to 10.00
28 | CCOc1cc(C(=O)O)cc(OCC)c1-n1cc(CC2CCC2)c2ncc(-c3c(C)nnn3C)cc21 [P-0190, 4-(3-(cyclobutylmethyl)-6-(1,4-dimethyl-1H-1,2,3-triazol-5-yl)-1H-pyrrolo[3,2-b]pyridin-1-yl)-3,5-diethoxybenzoic acid] | 6.00 to 10.00
29 | Cc1noc(C)c1-c1cnc2c(c1)c(-c1ccc(C(=O)O)cc1OC(F)(F)F)cn2CCN1CCOCC1 [P-0191, 4-(5-(3,5-dimethylisoxazol-4-yl)-1-(2-morpholinoethyl)-1H-pyrrolo[2,3-b]pyridin-3-yl)-3-(trifluoromethoxy)benzoic acid] | 6.00 to 10.00
30 | CCOc1cc(C(=O)O)cc(OCC)c1-n1cc(-c2ccc(C3CC3)nc2)c2ncc(-c3c(C)noc3C)cc21 [P-0192, 4-(3-(6-cyclopropylpyridin-3-yl)-6-(3,5-dimethylisoxazol-4-yl)-1H-pyrrolo[3,2-b]pyridin-1-yl)-3,5-diethoxybenzoic acid] | 6.00 to 10.00
31 | CCOc1cc(C(=O)O)cc(OCC)c1-n1cc(-c2cncc(Cl)c2)c2ncc(-c3c(C)noc3C)cc21 [P-0193, 4-(3-(5-chloropyridin-3-yl)-6-(3,5-dimethylisoxazol-4-yl)-1H-pyrrolo[3,2-b]pyridin-1-yl)-3,5-diethoxybenzoic acid] | 6.00 to 10.00
